One experiment has as its target T1, HiBit-BRM fusion protein (Homo sapiens, UniProt P51531).
T1 construct: expressed in transfected cells
As to the kind of experiment: HiBiT-BRM cell-based degradation assay (Nano-Glo HiBiT Lytic Detection, 24 h). Conditions: HeLa cell line expressing HiBiT-BRM; for DC50: read-out: BRM HiBit Degradation IC50. Put shortly:
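HeLa cells stably expressing HiBiT-BRM were treated for 24 h with compounds (10-point 3-fold dilutions, 30 μM final top dose, in duplicate). HiBiT was detected by lytic LgBiT complementation luminescence. % degradation was normalized to DMSO (high control) and 2 μM of a reference BRM/BRG1 degrader (low control).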

For experiment [1], the target named is T2, HiBit-BRG1 fusion protein (Homo sapiens, UniProt P51532).
T2 construct: expressed in transfected cells
T2 sequence (P51532 whole entry, the tested form may be a part): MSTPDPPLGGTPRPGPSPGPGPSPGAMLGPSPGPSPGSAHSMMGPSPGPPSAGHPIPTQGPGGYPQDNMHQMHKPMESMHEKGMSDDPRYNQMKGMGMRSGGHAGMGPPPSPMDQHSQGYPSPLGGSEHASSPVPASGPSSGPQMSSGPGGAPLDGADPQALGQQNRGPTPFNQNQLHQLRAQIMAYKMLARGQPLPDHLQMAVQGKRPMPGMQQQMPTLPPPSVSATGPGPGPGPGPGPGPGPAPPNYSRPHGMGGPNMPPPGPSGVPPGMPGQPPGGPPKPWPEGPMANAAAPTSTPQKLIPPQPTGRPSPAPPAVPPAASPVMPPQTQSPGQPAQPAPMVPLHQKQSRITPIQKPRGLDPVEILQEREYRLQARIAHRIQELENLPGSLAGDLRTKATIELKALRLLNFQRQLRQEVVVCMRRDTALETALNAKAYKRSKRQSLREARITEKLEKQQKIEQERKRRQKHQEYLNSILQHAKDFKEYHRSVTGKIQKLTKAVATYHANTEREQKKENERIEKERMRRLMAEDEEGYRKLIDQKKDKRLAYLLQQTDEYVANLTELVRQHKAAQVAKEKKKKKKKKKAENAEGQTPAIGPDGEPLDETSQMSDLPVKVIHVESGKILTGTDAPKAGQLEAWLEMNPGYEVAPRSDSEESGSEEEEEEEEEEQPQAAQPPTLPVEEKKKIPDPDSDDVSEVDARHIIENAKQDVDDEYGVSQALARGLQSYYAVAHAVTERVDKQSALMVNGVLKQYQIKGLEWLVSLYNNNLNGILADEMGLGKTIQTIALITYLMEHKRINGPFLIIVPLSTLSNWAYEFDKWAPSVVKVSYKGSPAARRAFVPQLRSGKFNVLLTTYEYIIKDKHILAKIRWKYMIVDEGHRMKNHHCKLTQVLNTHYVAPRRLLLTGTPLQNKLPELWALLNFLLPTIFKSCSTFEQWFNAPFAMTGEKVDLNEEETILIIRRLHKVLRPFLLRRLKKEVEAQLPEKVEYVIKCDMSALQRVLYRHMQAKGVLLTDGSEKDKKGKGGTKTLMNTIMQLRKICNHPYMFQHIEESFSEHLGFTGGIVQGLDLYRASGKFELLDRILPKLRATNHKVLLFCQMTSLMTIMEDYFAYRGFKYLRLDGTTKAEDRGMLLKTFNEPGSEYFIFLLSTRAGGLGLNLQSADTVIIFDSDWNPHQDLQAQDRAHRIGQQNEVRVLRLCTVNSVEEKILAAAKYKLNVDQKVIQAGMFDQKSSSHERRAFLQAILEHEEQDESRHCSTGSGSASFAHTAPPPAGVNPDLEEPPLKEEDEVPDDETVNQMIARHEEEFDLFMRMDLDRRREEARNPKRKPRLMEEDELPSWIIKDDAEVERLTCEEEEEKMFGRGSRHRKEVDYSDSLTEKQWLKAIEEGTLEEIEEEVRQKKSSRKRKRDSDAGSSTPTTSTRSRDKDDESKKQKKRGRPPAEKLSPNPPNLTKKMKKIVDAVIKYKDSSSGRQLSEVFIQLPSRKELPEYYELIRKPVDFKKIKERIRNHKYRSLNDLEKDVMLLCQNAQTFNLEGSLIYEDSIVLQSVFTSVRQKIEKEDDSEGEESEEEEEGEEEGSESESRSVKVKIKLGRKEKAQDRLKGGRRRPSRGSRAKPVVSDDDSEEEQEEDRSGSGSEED
As to the kind of experiment: HiBiT-BRG1 cell-based degradation assay (Nano-Glo HiBiT Lytic Detection, 24 h). The following applies: HeLa cell line expressing HiBit-BRG1 and LgBit; for Dmax: read-out: BRG1 HiBit Degradation Maximum (%); for DC50: read-out: BRMG1 HiBit Degradation IC50. The method, boiled down:
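Luminescence from reconstituted NanoBiT luciferase after lytic detection served as read-out of remaining HiBit-BRG1 in stable HeLa cells, which also express LgBit. Cells were seeded at 5000 per well and incubated with compound for 24 h. DMSO and a 2 μM known degrader defined the control range.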

Molecules are shown by their SMILES.

T1 sequence (P51531 whole entry, the tested form may be a part): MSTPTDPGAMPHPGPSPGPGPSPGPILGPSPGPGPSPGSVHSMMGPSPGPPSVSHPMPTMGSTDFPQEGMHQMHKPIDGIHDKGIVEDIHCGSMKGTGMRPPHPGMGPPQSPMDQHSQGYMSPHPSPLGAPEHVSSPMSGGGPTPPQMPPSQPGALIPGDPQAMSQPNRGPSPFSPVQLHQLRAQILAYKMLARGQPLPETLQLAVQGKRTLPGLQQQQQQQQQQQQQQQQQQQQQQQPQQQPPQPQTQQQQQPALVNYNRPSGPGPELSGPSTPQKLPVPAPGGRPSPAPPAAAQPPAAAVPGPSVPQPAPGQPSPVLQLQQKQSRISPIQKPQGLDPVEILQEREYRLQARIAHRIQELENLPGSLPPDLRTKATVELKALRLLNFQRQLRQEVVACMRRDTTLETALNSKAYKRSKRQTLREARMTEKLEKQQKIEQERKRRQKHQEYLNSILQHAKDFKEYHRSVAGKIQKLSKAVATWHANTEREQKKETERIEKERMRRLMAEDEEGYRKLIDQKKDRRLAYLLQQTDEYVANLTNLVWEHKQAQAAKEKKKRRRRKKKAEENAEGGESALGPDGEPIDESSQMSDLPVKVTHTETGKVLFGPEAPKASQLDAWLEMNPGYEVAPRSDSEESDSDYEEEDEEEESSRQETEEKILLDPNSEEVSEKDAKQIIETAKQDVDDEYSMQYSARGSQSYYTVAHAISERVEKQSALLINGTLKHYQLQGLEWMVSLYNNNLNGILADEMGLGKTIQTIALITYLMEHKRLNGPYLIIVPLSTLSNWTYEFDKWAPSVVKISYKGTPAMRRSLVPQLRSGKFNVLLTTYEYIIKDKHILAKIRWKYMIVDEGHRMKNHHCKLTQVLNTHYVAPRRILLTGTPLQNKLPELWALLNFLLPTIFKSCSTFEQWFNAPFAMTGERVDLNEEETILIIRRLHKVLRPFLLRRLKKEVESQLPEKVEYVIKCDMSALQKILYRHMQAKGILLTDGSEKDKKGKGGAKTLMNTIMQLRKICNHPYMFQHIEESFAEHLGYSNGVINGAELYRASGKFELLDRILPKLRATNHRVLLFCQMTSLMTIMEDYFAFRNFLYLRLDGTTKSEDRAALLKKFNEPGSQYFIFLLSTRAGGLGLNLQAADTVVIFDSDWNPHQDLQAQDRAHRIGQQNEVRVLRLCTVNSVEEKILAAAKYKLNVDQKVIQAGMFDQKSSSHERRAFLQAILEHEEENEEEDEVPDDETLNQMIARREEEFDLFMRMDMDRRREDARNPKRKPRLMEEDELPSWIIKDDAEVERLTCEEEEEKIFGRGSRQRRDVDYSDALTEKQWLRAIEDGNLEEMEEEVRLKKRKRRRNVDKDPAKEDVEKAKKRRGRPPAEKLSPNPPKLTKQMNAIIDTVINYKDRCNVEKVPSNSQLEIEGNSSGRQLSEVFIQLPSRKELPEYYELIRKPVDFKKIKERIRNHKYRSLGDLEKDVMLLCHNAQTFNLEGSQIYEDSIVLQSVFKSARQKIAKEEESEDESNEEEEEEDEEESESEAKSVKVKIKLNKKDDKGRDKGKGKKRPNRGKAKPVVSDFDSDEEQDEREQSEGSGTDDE

On to `Cc1ncsc1-c1ccc([C@H](C)NC(=O)[C@@H]2C[C@@H](O)CN2C(=O)[C@@H](c2cc(OCCN3CC(c4[nH]c5nnc(-c6cc(F)ccc6O)cc5c4C)C3)no2)C(C)C)cc1` (racemic) [Compound 130, (2S,4R)-1-((R)-2-(3-(2-(3-(3-(5-fluoro-2-hydroxyphenyl)-5-methyl-7H-pyrrolo[2,3-c]pyridazin-6-yl)azetidin-1-yl)ethoxy)isoxazol-5-yl)-3-methylbutanoyl)-4-hydroxy-N-((S)-1-(4-(4-methylthiazol-5-yl)phenyl)ethyl)pyrrolidine-2-carboxamide], for which, at HiBit-BRM fusion protein, the “BRM HiBit Degradation Maximum (%)” value is on record as “A (“A” indicates maximum degradation ≥ 75%)” and the DC50 was less than 10 nM. Also, in experiment [1], the Dmax was more than 75% and the DC50 is more than 100 nM.
As for `Cc1ncsc1-c1ccc([C@H](C)NC(=O)[C@@H]2C[C@@H](O)CN2C(=O)[C@@H](NC(=O)CCCCCCCCCCCCC(=O)N2CC(c3cc4cc(-c5ccccc5O)nnc4[nH]3)C2)C(C)(C)C)cc1` [Compound 12, (2S,4R)-4-hydroxy-1-((S)-2-(14-(3-(3-(2-hydroxyphenyl)-7H-pyrrolo[2,3-c]pyridazin-6-yl)azetidin-1-yl)-14-oxotetradecanamido)-3,3-dimethylbutanoyl)-N-((S)-1-(4-(4-methylthiazol-5-yl)phenyl)ethyl)pyrrolidine-2-carboxamide], at HiBit-BRM fusion protein, the “BRM HiBit Degradation Maximum (%)” value is “A (“A” indicates maximum degradation ≥ 75%)” and the DC50 is more than 100 nM. In addition, the Dmax in experiment [1] was less than 50%.
Take `Cc1ncsc1-c1ccc([C@H](C)NC(=O)[C@@H]2C[C@@H](O)CN2C(=O)[C@@H](c2cc(OCCN3CCC[C@H]3c3cc4cc(-c5ccccc5O)nnc4[nH]3)no2)C(C)C)cc1` (racemic) [Compound 260, (2S,4R)-4-hydroxy-1-((R)-2-(3-(2-((S)-2-(3-(2-hydroxyphenyl)-7H-pyrrolo[2,3-c]pyridazin-6-yl)pyrrolidin-1-yl)ethoxy)isoxazol-5-yl)-3-methylbutanoyl)-N-((S)-1-(4-(4-methylthiazol-5-yl)phenyl)ethyl)pyrrolidine-2-carboxamide]: on HiBit-BRM fusion protein, the “BRM HiBit Degradation Maximum (%)” value was “B (“B” indicates maximum degradation ≥ 50%)” and the DC50 was more than 10 nM. For the same molecule, in experiment [1], the Dmax is less than 50%.
`Cc1ncsc1-c1ccc([C@H](C)NC(=O)[C@@H]2C[C@@H](O)CN2C(=O)[C@@H](c2cc(OCCN3C[C@@H]4[C@H](C3)[C@H]4c3cc4cc(-c5ccccc5O)nnc4[nH]3)no2)C(C)C)cc1` (racemic) [Compound 308, (2S,4R)-4-hydroxy-1-((R)-2-(3-(2-((1R,5S,6R)-6-(3-(2-hydroxyphenyl)-7H-pyrrolo[2,3-c]pyridazin-6-yl)-3-azabicyclo[3.1.0]hexan-3-yl)ethoxy)isoxazol-5-yl)-3-methylbutanoyl)-N-((S)-1-(4-(4-methylthiazol-5-yl)phenyl)ethyl)pyrrolidine-2-carboxamide]: at HiBit-BRM fusion protein, the “BRM HiBit Degradation Maximum (%)” value is recorded as “A (“A” indicates maximum degradation ≥ 75%)” and the DC50 was less than 10 nM. In experiment [1], the Dmax was more than 75% and the DC50 was more than 10 nM.
Consider `Cc1ncsc1-c1ccc(CNC(=O)[C@@H]2C[C@@H](O)CN2C(=O)[C@@H](NC(=O)CCCCC(=O)NC23CC(c4cc5cc(-c6ccccc6O)nnc5[nH]4)(C2)C3)C(C)(C)C)cc1` (racemic) [Compound 299, N1-((S)-1-((2S,4R)-4-hydroxy-2-((4-(4-methylthiazol-5-yl)benzyl)carbamoyl)pyrrolidin-1-yl)-3,3-dimethyl-1-oxobutan-2-yl)-N6-(3-(3-(2-hydroxyphenyl)-7H-pyrrolo[2,3-c]pyridazin-6-yl)bicyclo[1.1.1]pentan-1-yl)adipamide], for which, on HiBit-BRM fusion protein, the “BRM HiBit Degradation Maximum (%)” value was “B (“B” indicates maximum degradation ≥ 50%)” and the DC50 was more than 1000 nM. For the same molecule, in experiment [1], the Dmax was less than 50%.
For `Cc1ncsc1-c1ccc(CNC(=O)[C@@H]2C[C@@H](O)CN2C(=O)[C@@H](c2cc(OCCN3CC(c4cc5cc(-c6ccccc6O)nnc5[nH]4)C3)no2)C(C)C)cc1` (single isomer, unassigned) [Compound 209] the same measures were “A (“A” indicates maximum degradation ≥ 75%)”, more than 10 nM and less than 50%.
For `Cc1ncsc1-c1ccc([C@H](C)NC(=O)[C@@H]2C[C@@H](O)CN2C(=O)[C@@H](c2cc(OCCN3CCC(N4CC(c5cc6cc(-c7ccccc7O)nnc6[nH]5)C4)CC3)no2)C(C)C)cc1` (racemic) [Compound 48, (2S,4R)-4-hydroxy-1-((R)-2-(3-(2-(4-(3-(3-(2-hydroxyphenyl)-7H-pyrrolo[2,3-c]pyridazin-6-yl)azetidin-1-yl)piperidin-1-yl)ethoxy)isoxazol-5-yl)-3-methylbutanoyl)-N-((S)-1-(4-(4-methylthiazol-5-yl)phenyl)ethyl)pyrrolidine-2-carboxamide] the same measures were “A (“A” indicates maximum degradation ≥ 75%)”, more than 10 nM and less than 50%.
As for `Cc1ncsc1-c1ccc([C@H](C)NC(=O)[C@@H]2C[C@@H](O)CN2C(=O)[C@@H](c2cc(N3CCC(C(=O)N4CCc5[nH]c6nnc(-c7ccccc7O)cc6c5[C@H]4C)CC3)no2)C(C)C)cc1` (racemic) [Compound 82, (2S,4R)-4-hydroxy-1-((R)-2-(3-(4-((R)-3-(2-hydroxyphenyl)-5-methyl-6,7,8,9-tetrahydro-5H-pyrido[3′,4′:4,5]pyrrolo[2,3-c]pyridazine-6-carbonyl)piperidin-1-yl)isoxazol-5-yl)-3-methylbutanoyl)-N-((S)-1-(4-(4-methylthiazol-5-yl)phenyl)ethyl)pyrrolidine-2-carboxamide], on HiBit-BRM fusion protein, the “BRM HiBit Degradation Maximum (%)” value was “A (“A” indicates maximum degradation ≥ 75%)” and the DC50 is less than 10 nM. Also, in experiment [1], the Dmax was more than 75% and the DC50 is more than 100 nM.
Regarding `Cc1ncsc1-c1ccc([C@H](C)NC(=O)[C@@H]2C[C@@H](O)CN2C(=O)[C@@H](c2cc(OCCN3CC4(CNc5nnc(-c6ccccc6O)cc54)C3)no2)C(C)C)cc1` (racemic) [Compound 177, (2S,4R)-4-hydroxy-1-((R)-2-(3-(2-(3′-(2-hydroxyphenyl)-6′,7′-dihydrospiro[azetidine-3,5′-pyrrolo[2,3-c]pyridazin]-1-yl)ethoxy)isoxazol-5-yl)-3-methylbutanoyl)-N-((S)-1-(4-(4-methylthiazol-5-yl)phenyl)ethyl)pyrrolidine-2-carboxamide], at HiBit-BRM fusion protein, the “BRM HiBit Degradation Maximum (%)” value is on record as “B (“B” indicates maximum degradation ≥ 50%)” and the DC50 is more than 1000 nM. Besides, in experiment [1], the Dmax is less than 50%.
As for `Cc1ncsc1-c1ccc([C@H](C)NC(=O)[C@@H]2C[C@@H](O)CN2C(=O)[C@@H](c2cc(CN3CC(c4cc5cc(-c6ccccc6O)nnc5[nH]4)C3)no2)C(C)C)cc1` (single isomer, unassigned) [Compound 137], the “BRM HiBit Degradation Maximum (%)” value at HiBit-BRM fusion protein is on record as “A (“A” indicates maximum degradation ≥ 75%)”. Besides, in experiment [1], the Dmax was less than 50%.
For the molecule `Cc1ncsc1-c1ccc(CNC(=O)[C@@H]2C[C@@H](O)CN2C(=O)[C@@H](NC(=O)CCCCCCCCCCCCCCCCC(=O)N2CC(c3cc4cc(-c5ccccc5O)nnc4[nH]3)C2)C(C)(C)C)cc1` [Compound 19, (2S,4R)-4-hydroxy-1-((S)-2-(18-(3-(3-(2-hydroxyphenyl)-7H-pyrrolo[2,3-c]pyridazin-6-yl)azetidin-1-yl)-18-oxooctadecanamido)-3,3-dimethylbutanoyl)-N-(4-(4-methylthiazol-5-yl)benzyl)pyrrolidine-2-carboxamide], on HiBit-BRM fusion protein, the “BRM HiBit Degradation Maximum (%)” value was “C (“C” indicates maximum degradation < 50%)”. Moreover, the Dmax in experiment [1] was less than 50%.
Turning to `Cc1ncsc1-c1ccc([C@H](C)NC(=O)[C@@H]2C[C@@H](O)CN2C(=O)[C@@H](c2cc(OCCN3CCN(c4cc5cc(-c6ccccc6O)nnc5[nH]4)CC3)no2)C(C)C)cc1` (racemic) [Compound 235, (2S,4R)-4-hydroxy-1-((R)-2-(3-(2-(4-(3-(2-hydroxyphenyl)-7H-pyrrolo[2,3-c]pyridazin-6-yl)piperazin-1-yl)ethoxy)isoxazol-5-yl)-3-methylbutanoyl)-N-((S)-1-(4-(4-methylthiazol-5-yl)phenyl)ethyl)pyrrolidine-2-carboxamide], on HiBit-BRM fusion protein, the “BRM HiBit Degradation Maximum (%)” value is “A (“A” indicates maximum degradation ≥ 75%)” and the DC50 was more than 10 nM. Besides, in experiment [1], the Dmax was more than 75% and the DC50 is more than 10 nM.
For the molecule `CC(C)[C@@H](C(=O)N1C[C@H](O)C[C@H]1C(=O)N[C@@H](C)c1ccc(-c2ccccc2F)cc1)c1cc(OCCN2CC(c3cc4cc(-c5ccccc5O)nnc4[nH]3)C2)no1` (single isomer, unassigned) [Compound 119], on HiBit-BRM fusion protein, the “BRM HiBit Degradation Maximum (%)” value was “A (“A” indicates maximum degradation ≥ 75%)” and the DC50 is more than 10 nM. In addition, in experiment [1], the Dmax is more than 50% and the DC50 is more than 1000 nM.
As for `Cc1ncsc1-c1ccc([C@H](C)NC(=O)[C@@H]2C[C@@H](O)CN2C(=O)[C@@H](c2cc(OCCN3CC(c4cc5cc(-c6ccccc6O)nnc5n4C(F)F)C3)no2)C(C)C)cc1` (racemic) [Compound 148, (2S,4R)-1-[(2R)-2-[3-(2-{3-[7-(difluoromethyl)-3-(2-hydroxyphenyl)pyrrolo[2,3-c]pyridazin-6-yl]azetidin-1-yl}ethoxy)-1,2-oxazol-5-yl]-3-methylbutanoyl]-4-hydroxy-N-[(1S)-1-[4-(4-methyl-1,3-thiazol-5-yl)phenyl]ethyl]pyrrolidine-2-carboxamide], the “BRM HiBit Degradation Maximum (%)” value on HiBit-BRM fusion protein is on record as “C (“C” indicates maximum degradation < 50%)”. Also, the Dmax in experiment [1] is less than 50%.
